# Data taken from paper PMC8284453 (Antimicrobial Agents and Chemotherapy, 2021).
# Where “and” joins values, the source holds several entries; their conditions need not be identical. Equal values may be shown once. Read-outs that look alike come from different tables or passages of the source.
# Legend:
# [1] = test system: Enterobacterales expressing class A ESBLs; experiment: organism not typed; format: cell-based, E. coli, K. pneumoniae
# [2] = test system: Enterobacterales expressing class A carbapenemases (KPC); experiment: organism not typed; format: cell-based, K. pneumoniae, E. coli, E. cloacae, Klebsiella oxytoca
# [3] = test system: Enterobacterales expressing class D oxacillinases (OXA-48/48-like); experiment: organism not typed; format: cell-based, E. coli, K. pneumoniae
# [4] = test system: isogenic strains of E. coli expressing Ambler class A, B, C, and D enzymes; experiment: microbe, parasite or virus in culture; format: cell-based, Escherichia coli; conditions: for Fold increase in MIC compared to vector control: inhibitor fixed at 4 μg/ml
# E. coli ESBL4 (CTX-M-15) [5] = experiment: Broth microdilution MIC; format: cell-based; conditions: Escherichia coli
# [6] = test system: E. cloacae ECL01 (TEM-72, ACT-1, P99AmpC); experiment: Broth microdilution MIC; format: cell-based; conditions: Enterobacter cloacae
# [7] = test system: K. pneumoniae ATCC BAA-1705 (KPC-2); experiment: Broth microdilution MIC; format: cell-based; conditions: Klebsiella pneumoniae, ATCCBAA1705
# [8] = test system: K. pneumoniae 752286 (OXA-48); experiment: Broth microdilution MIC; format: cell-based; conditions: Klebsiella pneumoniae
# [9] = test system: E. cloacae ECL01 (TEM-72, ACT-1, P99AmpC); experiment: 24-h time-kill assay; format: cell-based; conditions: Enterobacter cloacae; lowest concentration with ≥3-log10 CFU/ml reduction at 24 h; read-out: MBC
# In short: (§1)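 Bacteria at 5 × 10^5 CFU/ml in CAMHB, incubated at 37°C with shaking at 200 rpm. Viable counts determined at 0, 2, 4, 6, 8 and 24 h by 0.5 log10 serial dilution with overnight regrowth; quantification limit 2 log10 CFU/ml.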
# E. coli ESBL4 (CTX-M-15) [10] = experiment: 24-h time-kill assay; format: cell-based
# In short: as §1
# [11] = test system: K. pneumoniae 752286 (OXA-48); experiment: 24-h time-kill assay; format: cell-based; conditions: Klebsiella pneumoniae; lowest concentration with ≥3-log10 CFU/ml reduction at 24 h; read-out: MBC
# In short: as §1
# [12] = test system: K. pneumoniae ATCC BAA-1705 (KPC-2); experiment: 24-h time-kill assay; format: cell-based; conditions: Klebsiella pneumoniae, ATCCBAA1705; lowest concentration with ≥3-log10 CFU/ml reduction at 24 h; read-out: MBC
# In short: as §1
# [13] = test system: Enterobacterales expressing class C cephalosporinases
# [14] = test system: Enterobacterales expressing class C cephalosporinases; experiment: organism not typed
# [15] = 25 isolates, BLI fixed at 4 μg/ml, AMC 2:1
smiles,measurement,setting,value
C[C@@H](O)[C@H]1C(=O)N2C(C(=O)O)=C(SC3CN(C4=NCCS4)C3)[C@H](C)[C@H]12 [Tebipenem],MIC50,[1],0.03 µg/mL
same,MIC90,[1],0.06 µg/mL
same,MIC range,[1]; [15],≤0.016 to 0.12 µg/mL
same,MIC50,[2],≥ 64 µg/mL
same,MIC90,[2],≥ 64 µg/mL
same,MIC50,[2]; [15],≥64 µg/mL
same,MIC90,[2]; [15],≥64 µg/mL
same,MIC,[2]; E. cloacae 847426 (KPC),≥ 64 µg/mL
same,MIC,[2]; E. cloacae 847429 (KPC),≥ 64 µg/mL
same,MIC,"[2]; E. cloacae OIMGH49 (p99 AmpC, ACT-2, KPC-2, TEM-1)",32 µg/mL
same,MIC,[2]; E. coli 786978 (KPC),≥ 64 µg/mL
same,MIC,[2]; K. oxytoca 847537 (KPC),≥ 64 µg/mL
same,MIC,[2]; K. oxytoca 847539 (KPC),8 µg/mL
same,MIC,"[2]; K. pneumoniae 155140 (AmpC, KPC-2, SHV-12, TEM-1)",≥ 64 µg/mL
same,MIC,[2]; K. pneumoniae 845661 (KPC),≥ 64 µg/mL
same,MIC,[2]; K. pneumoniae 845662 (KPC),≥ 64 µg/mL
same,MIC,[2]; K. pneumoniae 845665 (KPC),≥ 64 µg/mL
same,MIC,[2]; K. pneumoniae 845667 (KPC),≥ 64 µg/mL
same,MIC,[2]; K. pneumoniae 845670 (KPC),32 µg/mL
same,MIC,[2]; K. pneumoniae 845904 (KPC),≥ 64 µg/mL
same,MIC,[2]; K. pneumoniae 847204 (KPC),≥ 64 µg/mL
same,MIC,[2]; K. pneumoniae 847375 (KPC),≥ 64 µg/mL
same,MIC,[2]; K. pneumoniae 847378 (KPC),≥ 64 µg/mL
same,MIC,[2]; K. pneumoniae 847379 (KPC),16 µg/mL
same,MIC,[2]; K. pneumoniae 847383 (KPC),≥ 64 µg/mL
same,MIC,[2]; K. pneumoniae 847384 (KPC),≥ 64 µg/mL
same,MIC,[2]; K. pneumoniae 847387 (KPC),≥ 64 µg/mL
same,MIC,[2]; K. pneumoniae 847747 (KPC),≥ 64 µg/mL
same,MIC,[2]; K. pneumoniae 848832 (KPC),≥ 64 µg/mL
same,MIC,[2]; K. pneumoniae 848844 (KPC),≥ 64 µg/mL
same,MIC,[2]; K. pneumoniae 897067 (KPC),32 µg/mL
same,MIC,"[2]; K. pneumoniae UMM (KPC-2, SHV-5, TEM-1)",32 µg/mL
same,MIC50,[3]; [15],4 µg/mL and 8 µg/mL
same,MIC90,[3]; [15],16 µg/mL and 32 µg/mL
same,MIC,[3]; E. coli 664507 (OXA-48),4 µg/mL
same,MIC,[3]; E. coli 664516 (OXA-48),8 µg/mL
same,MIC,[3]; E. coli 664520 (OXA-48),4 µg/mL
same,MIC,[3]; E. coli 664522 (OXA-48),8 µg/mL
same,MIC,[3]; E. coli 664523 (OXA-48),4 µg/mL
same,MIC,[3]; E. coli 664524 (OXA-48),4 µg/mL
same,MIC,[3]; E. coli 664525 (OXA-48),8 µg/mL
same,MIC,[3]; E. coli 664526 (OXA-48),4 µg/mL
same,MIC,[3]; E. coli 664528 (OXA-48),4 µg/mL
same,MIC,[3]; E. coli 787112 (OXA-48),8 µg/mL
same,MIC,[3]; E. coli SI-422 (OXA-48),1 µg/mL
same,MIC,[3]; E. coli VER (OXA-48),1 µg/mL
same,MIC,[3]; K. pneumoniae 6299 (OXA-163),4 µg/mL
same,MIC,"[3]; K. pneumoniae 515746 (OXA-48), first line",1 µg/mL
same,MIC,"[3]; K. pneumoniae 515746 (OXA-48), second line",0.5 µg/mL
same,MIC,[3]; K. pneumoniae 664438 (OXA-48),8 µg/mL
same,MIC,[3]; K. pneumoniae 664439 (OXA-48),4 µg/mL
same,MIC,[3]; K. pneumoniae 664509 (OXA-48),≥ 64 µg/mL
same,MIC,[3]; K. pneumoniae 664518 (OXA-48),4 µg/mL
same,MIC,[3]; K. pneumoniae 722870 (OXA-48),1 µg/mL
same,MIC,[3]; K. pneumoniae BAH (OXA-204),0.5 µg/mL
same,MIC,[3]; K. pneumoniae DEL (OXA-232),≥ 64 µg/mL
same,MIC,[3]; K. pneumoniae DOV (OXA-48),0.5 µg/mL
same,MIC,[3]; K. pneumoniae KIRK (OXA-162),1 µg/mL
same,MIC,[3]; K. pneumoniae SI-C17 (OXA-48),16 µg/mL
same,Fold increase in MIC compared to vector control,[4]; E. coli expressing ACT-17 (class C),4
same,Fold increase in MIC compared to vector control,[4]; E. coli expressing CMY-2 (class C),4
same,Fold increase in MIC compared to vector control,[4]; E. coli expressing CMY-42 (class C),16
same,Fold increase in MIC compared to vector control,[4]; E. coli expressing CTX-M-15 (class A),4
same,Fold increase in MIC compared to vector control,[4]; E. coli expressing GES-5 (class A),512
same,Fold increase in MIC compared to vector control,[4]; E. coli expressing KPC-3 D179Y (class A),8
same,Fold increase in MIC compared to vector control,[4]; E. coli expressing NDM-1 (class B),"2,048"
same,Fold increase in MIC compared to vector control,[4]; E. coli expressing OXA-23 (class D),128
same,Fold increase in MIC compared to vector control,[4]; E. coli expressing OXA-48 (class D),256
same,Fold increase in MIC compared to vector control,[4]; E. coli expressing OXA-163 (class D),32
same,Fold increase in MIC compared to vector control,[4]; E. coli expressing OXA-181 (class D),256
same,Fold increase in MIC compared to vector control,[4]; E. coli expressing P99/AmpC (class C),8
same,Fold increase in MIC compared to vector control,[4]; E. coli expressing PER-1 (class A),4
same,Fold increase in MIC compared to vector control,[4]; E. coli expressing SHV-5 (class A),4
same,Fold increase in MIC compared to vector control,[4]; E. coli expressing SHV-12 (class A),4
same,Fold increase in MIC compared to vector control,"[4]; E. coli expressing TEM-10 (class A), modal MIC, 4 replicates",4
same,Fold increase in MIC compared to vector control,[4]; E. coli expressing VEB-9 (class A),2
same,MIC,"[4]; Escherichia coli, read-out: Vector control MIC",0.016 µg/mL
same,MIC,E. coli ESBL4 (CTX-M-15) [5],≤ 0.06 µg/mL
same,MIC,[6],0.25 µg/mL
same,MIC,[7],32 µg/mL
same,MIC,[8],16 µg/mL
same,MBC,[9],0.25 µg/mL
same,MBC,"E. coli ESBL4 (CTX-M-15) [10]; Escherichia coli, lowest concentration with ≥3-log10 CFU/ml reduction at 24 h, read-out: MBC",0.06 µg/mL
same,outcome of 24-h time-kill assay,"E. coli ESBL4 (CTX-M-15) [10]; Fig. 3a, CTB 2 μg/ml with BLI at 4 μg/ml, CTB alone 8 μg/ml, amoxicillin 8/clavulanic acid 4 μg/ml, penems 2 μg/ml",bactericidal activity
same,MBC,[11],> 32 µg/mL
same,MBC,[12],32 µg/mL
same,MIC,"[13]; C. freundii 134390 (AmpC, TEM-1)",0.03 µg/mL
same,MIC,"[13]; E. aerogenes 110099 (AmpC, SHV-12)",0.12 µg/mL
same,MIC,"[13]; E. aerogenes 111707 (AmpC, TEM-1)",0.03 µg/mL
same,MIC,"[13]; E. aerogenes 111902 (AmpC, TEM-1)",0.12 µg/mL
same,MIC,"[13]; E. coli 128 (AmpC, SHV-12, TEM-1, Toho-2)",≤ 0. 016 μg/ml
same,MIC,"[13]; E. coli 3102 (AmpC, CTX-M-15, TEM-1)",≤ 0. 016 μg/ml
same,MIC,"[13]; E. coli CH1 (AmpC, CTX-M-15, SHV-1, SHV-5, TEM-1)",0.06 µg/mL
same,MIC,"[13]; E. coli EC469 (AmpC, SHV-12, TEM-1)",≤ 0. 016 μg/ml
same,MIC,"[13]; E. coli J53 (AmpC, SHV-5, TEM-1)",≤ 0. 016 μg/ml
same,MIC,"[13]; E. coli SI-P026TC (CMY-2, TEM-1)",0.12 µg/mL
same,MIC,"[13]; E. coli SI-PO26 (AmpC, CMY-2, TEM-1)",0.03 µg/mL
same,MIC,"[13]; K. pneumoniae 129032 (MOX-2, SHV-12, TEM-1)",0.03 µg/mL
same,MIC,"[13]; K. pneumoniae 178279 (AmpC, SHV-12, TEM-1)",0.03 µg/mL
same,MIC,"[13]; K. pneumoniae 212027 (AmpC, FOX-5, TEM-1)",0.03 µg/mL
same,MIC,"[13]; K. pneumoniae 217917 (CMY-2, TEM-1)",0.06 µg/mL
same,MIC,"[13]; K. pneumoniae 301313 (AmpC, SHV-12, TEM-1)",0.06 µg/mL
same,MIC,"[13]; K. pneumoniae 398845 (CMY-2, SHV-12, TEM-1)",0.03 µg/mL
same,MIC,"[13]; K. pneumoniae SI-F100 (CMY-2, SHV-5, TEM-1)",≤ 0. 016 μg/ml
same,MIC,"[13]; P. mirabilis SI-F014 (AmpC, TEM-72)",2 µg/mL
same,MIC,"[13]; S. marcescens 132253 (AmpC, CTX-M-3, OXA-1, SHV-12, TEM-1)",0.5 µg/mL
same,MIC,"[13]; S. marcescens 134434 (AmpC, SHV-12, TEM-1)",0.5 µg/mL
same,MIC,"[13]; S. marcescens 142397 (AmpC, SHV-7, TEM-1)",0.25 µg/mL
same,MIC,"[13]; S. marcescens 156212 (AmpC, SHV-12, TEM-1)",0.25 µg/mL
same,MIC,"[13]; S. marcescens 192478 (AmpC, SHV-12, TEM-1)",0.12 µg/mL
same,MIC,"[13]; S. marcescens 218068 (AmpC, SHV-7, TEM-1)",0.25 µg/mL
same,MIC50,[14],0.06 µg/mL
same,MIC90,[14],0.5 µg/mL
